“Also recorded” adds a separate entry of the source. Where two headings read alike, the source gives them in different places.
Key:
[1] = Plasma and organ levels after injection of POMHEX in mice; format: in vivo, mouse; conditions: 24 hrs. after a single intravenous injection of 10 mg/kg POMHEX
Procedure: FIGS. 3A-3D show the ex-vivo half-life of POMHEX in biological fluids may limit its clinical utility. (FIG. 3A) Ex-vivo half-life of POMHEX in biological fluids. POMHEX has a half-life of ~30 seconds in mouse plasma. The degradation may be prevented by heat inactivation or de-proteinatization with acetonitrile. […] (FIG. 3B) Plasma concentration of HEX and HemiPOMHEX following a single intravenous injection of POMHEX, as a function of time. Mice were injected IV with 10 mg/kg POMHEX and sacrificed at the indicated time points. Each data point represents a single animal. Note, POMHEX itself was below the detection limit (100 nM) even at the earliest time point. It is believed that this may not be reflective of the physiological state as separation of plasma from hematocrit is required for the measurements, which adds approximately 6 minutes of processing time during which POMHEX may be degraded to HemiPOMHEX. (FIG. 3C) The results of the same experiment but performed with an intraperitoneal injection of POMHEX, at a dose of 40 mg/kg. (FIG. 3D) Quantification of POMHEX and its metabolites in mouse organs 24 hrs. after a single intravenous injection of 10 mg/kg POMHEX.
FIGS. 16A-16C show the ex-vivo half-life of POMHEX in biological fluids limits its clinical utility. […] Lower levels of carboxylesterase in human blood results in a longer half-life of POMHEX. (FIG. 16B) Dramatically higher drug exposure in non-human primates as compared to mice following IV injections of POMHEX. Mice (n=3; pooled) and monkeys (n=3; pooled) were injected IV with POMHEX at 10 mg/kg and 2.5 mg/kg, respectively. […] POMHEX was undetectable (<50 nM) even at the earliest time point, in both monkey and mouse experiments; at 98 nM, POMHEX was detectable 1-minute post-injection, but at no time thereafter. […] HEX and HemiPOMHEX were not measured at concentrations higher than 10 mg/kg due to the hazards associated with the derivatization agent, trimethylsilyl-diazomethane in hexane (TMS-DAM). (FIG. 16C) Schematic of POMHEX in circulation when administered IP or IV in mice. […]

[2] = Plasma levels after IV injection of POMHEX in monkeys; format: in vivo, monkey; conditions: after IV POMHEX, monkey 2.5 mg/kg, mouse 10 mg/kg
Procedure: FIGS. 16A-16C show the ex-vivo half-life of POMHEX in biological fluids limits its clinical utility. […] Lower levels of carboxylesterase in human blood results in a longer half-life of POMHEX. (FIG. 16B) Dramatically higher drug exposure in non-human primates as compared to mice following IV injections of POMHEX. Mice (n=3; pooled) and monkeys (n=3; pooled) were injected IV with POMHEX at 10 mg/kg and 2.5 mg/kg, respectively. […] POMHEX was undetectable (<50 nM) even at the earliest time point, in both monkey and mouse experiments; at 98 nM, POMHEX was detectable 1-minute post-injection, but at no time thereafter. […] HEX and HemiPOMHEX were not measured at concentrations higher than 10 mg/kg due to the hazards associated with the derivatization agent, trimethylsilyl-diazomethane in hexane (TMS-DAM). (FIG. 16C) Schematic of POMHEX in circulation when administered IP or IV in mice. Due to high levels of plasma carboxylesterase, a gradient decrease in POMHEX away from the site of injection is accompanied by a concurrent increase in HemiPOMHEX.

[3] = system: D423 (ENO1-deleted) glioma cells; assay: Cell proliferation assay (crystal violet) in ENO1-deleted glioma cells; format: cell-based; conditions: for IC50: Glioma cell; for selectivity for ENO1-deleted cells: versus ENO1-rescued (D423 ENO1) and ENO1-intact (LN319) glioma cells
Procedure: Cell culture experiments. Cell culture experiments were conducted using the D423-MG cell line. 1p36 homozygous deletion in D423 includes the genes from CAMTAJ to SLC25A33; this includes ENO1. Isogenic ENO1 ectopically rescued lines were described previously (pCMV ENO1 5X) (Muller et al., 2012, which is incorporated by reference herein). An ENO1-intact cell line (LN319) was used as a control for sensitivity to Enolase inhibitors. Cells were routinely cultured in Dulbecco's modified Eagle's medium supplemented with 10% fetal bovine serum.
Cell proliferation assay. Cell Proliferation was determined by crystal violet staining, as previously described (Leonard et al., 2016 and Satani et al., 2016). The cell lines used were D423 (ENO1-deleted), D423 ENO1 (overexpressing ENO1) and LN319 (control). Glioma cells were seeded in 96-well plates and treated with varying concentrations of the inhibitors described above for 7 days. Cells were then washed with PBS, fixed with 10% formalin and stained with 0.05% crystal violet. Washed and dried plates were dye-extracted using 10% acetic acid, and absorbance was measured at 595 nm using Omegastar Plate Reader (BMG Labtech). To test the efficacy of the synthesized under hypoxic conditions, 1×10^4 cells were plated in 96-well plates, treated with VCY13, VCY15, VCY16, or VCY17 and incubated for 3 days in a hypoxia station (Don Whitley Scientific, Shipley, UK) set at 1% O2 and 5% CO2. Crystal violet staining was then performed as described above.
Additional Biological Data. Pro-drug inhibitor structures and corresponding IC50 values against ENO1-deleted cells are shown below in Table 2. The name and corresponding structures of all synthesized inhibitors are given in left and middle columns of each table. Pro-drug moieties in blue represent a second pro-drug leave group while those in red represent a first pro-drug leave group. Some inhibitors also contain an acetyl-protected hydroxamate, which is also a biologically labile moiety. ENO1-deleted (D423), ENO1-isogenically rescued (D423 ENO1), and ENO1-WT (LN319) cells were treated with either pro-drug inhibitor for 5 days at 21% O2, unless otherwise specified. […] IC50,D423 values at 21% O2 are given in the right columns of each table. Experiments conducted at 1% O2 (hypoxic) or 70% O2 (hyperoxic) conditions are noted, where appropriate.

[4] = nitroimidazole in VCY17, nitrofuran in VCY15; cited from earlier work
[5] = system: D502 glioma cell line (ENO1-heterozygously deleted); assay: Enolase inhibitor sensitivity (crystal violet), ENO1-heterozygously deleted D502 cells; format: cell-based; conditions: DMEM 10% FBS, terminal cell density by crystal violet after 7 days
Procedure: (§1) Enolase inhibitor sensitivity experiments were performed, using DMEM containing 10% FBS cell culture media. IC50 (expressed in nM) were calculated based on terminal cell density measured by crystal violet after 7 days of growth. […] Left table: POMHEX. Middle table: HEX. Right table: Ratio of sensitivity to POMHEX versus HEX for each cell line.
(§2) (FIG. 19A) ENO1-deleted (D423, red), ENO1-isogenically rescued (D423 ENO1, blue), and ENO1-WT (LN319, grey) cells were treated POMHEX in RPMI media under the same experimental conditions used for NCI-60 screening. […] IC50 (expressed in nM) were calculated based on terminal cell density measured by crystal violet.
(§3) Cell proliferation assay.

[6] = system: U343 glioma cell line (ENO1-heterozygously deleted); assay: Enolase inhibitor sensitivity (crystal violet), ENO1-heterozygously deleted U343 cells; format: cell-based; conditions: DMEM 10% FBS, terminal cell density by crystal violet after 7 days
Procedure: as §1, §2, §3

[7] = 120 h, 21% O2, 5 days where stated, read-out: IC50 against D423 (ENO1-deleted) cells
[8] = 120 h, ENO1-deleted (D423) cells, 5 days, 21% O2, read-out: IC50,D423
[9] = D423 cells, 1% O2 (hypoxic), read-out: IC50,D423 at 1% O2

Compound: CC(C)(C)C(=O)OCOP(=O)(O)C1CCCN(O)C1=O (stereo not shown) [HemiPOMHEX]
- level in mouse organs [1]: below the quantification limit (BQL)
- half-life in monkey compared to mouse [2]: longer in monkey

Compound: CC(=O)ON1CCCC(P(=O)(NCc2ccccc2)OCCSC(=O)C(C)(C)C)C1=O (stereo not shown) [VCY13, 3-((benzylamino)(2-(pivaloylthio)ethoxy)phosphoryl)-2-oxopiperidin-1-yl acetate]
- IC50 [3, 7]: 38 nM
- IC50 [3, 8]: 38 nM
- selectivity for ENO1-deleted cells [3]: selective toxicity against ENO1-deleted; also recorded: dose-dependent selectivity for ENO1-deleted cells

Compound: CC(C)(C)C(=O)OCOP(=O)(NCc1cccc(F)c1)C1CCCN(O)C1=O (stereo not shown) [CDP12, ((((3-fluorobenzyl)amino)(1-hydroxy-2-oxopiperidin-3-yl)phosphoryl)oxy)methyl pivalate]
- IC50 [3, 8]: 249 nM

Compound: CC(C)(C)C(=O)OCOP(=O)(NCc1ccccn1)C1CCCN(O)C1=O (stereo not shown) [KY9, (((1-hydroxy-2-oxopiperidin-3-yl)((pyridin-2-ylmethyl)amino)phosphoryl)oxy)methyl pivalate]
- IC50 [3, 8]: 96 nM

Compound: CC(=O)ON1CCCC(P(=O)(NCc2ccccc2)OCc2ccc([N+](=O)[O-])s2)C1=O (stereo not shown) [VCY16, 3-((benzylamino)((5-nitrothiophen-2-yl)methoxy)phosphoryl)-2-oxopiperidin-1-yl acetate]
- IC50 [3, 8]: 234 nM
- IC50 [3, 9]: 40 nM

Compound: CC(C)(C)C(=O)OCOP(=O)(NCC1CCCCC1)C1CCCN(O)C1=O (stereo not shown) [CDP18, ((((Cyclohexylmethyl)amino)(1-hydroxy-2-oxopiperidin-3-yl)phosphoryl)oxy)methyl pivalate]
- greater potency compared to benzylamine pro-drug (FLM37) ([3]; D423 cells): ~ 3 fold
- IC50 [3, 7]: 77 nM
- IC50 [3, 8]: 77 nM

Compound: CC(C)(C)C(=O)OCOP(=O)(NCc1c(F)cccc1F)C1CCCN(O)C1=O (stereo not shown) [CDP19, ((((2,6-difluorobenzyl)amino)(1-hydroxy-2-oxopiperidin-3-yl)phosphoryl)oxy)methyl pivalate]
- IC50 [3, 8]: 112 nM

Compound: CC(=O)ON1CCCC(P(=O)(NCc2ccccc2)OCc2ccc([N+](=O)[O-])o2)C1=O (stereo not shown) [VCY15, 3-((benzylamino)((S-nitrofuran-2-yl)methoxy)phosphoryl)-2-oxopiperidin-1-yl acetate]
- IC50 [3, 7]: 230 nM
- IC50 [3, 8]: 390 nM
- IC50 [3, 9]: 97 nM
- difference in bioactivation from 21% to 1% O2 ([3]; taking into account HIF-1α/hypoxia-driven increase in ENO2 expression): ~ 5 fold
- selectivity for ENO1-deleted cells [3]: selective toxicity against ENO1-deleted
- redox potential of the nitroheterocycle [4]: −330 mV

Compound: N#CCCOP(=O)(NCc1ccccc1)C1CCCN(O)C1=O (stereo not shown) [VCY26]
- IC50 [3, 8]: 5000 nM

Compound: CC(C)(C)C(=O)OCOP(=O)(NCc1ccc(F)cc1)C1CCCN(O)C1=O (stereo not shown) [VCY19, ((((4-fluorobenzyl)amino)(1-hydroxy-2-oxopiperidin-3-yl)phosphoryl)oxy)methyl pivalate]
- IC50 [3, 8]: 129 nM

Compound: CC(=O)ON1CCCC(P(=O)(NCc2ccc(F)cc2)OCc2ccc([N+](=O)[O-])o2)C1=O (stereo not shown) [VCY22, 3-(((4-fluorobenzyl)amino)((5-nitrofuran-2-yl)methoxy)phosphoryl)-2-oxopiperidin-1-yl acetate]
- IC50 [3, 8]: 933 nM
- IC50 [3, 9]: 540 nM

Compound: CC(C)(C)C(=O)OCOP(=O)(NCC1CC1)C1CCCN(O)C1=O (stereo not shown) [VCY32, ((((Cyclopropylmethyl)amino)(1-hydroxy-2-oxopiperidin-3-yl)phosphoryl)oxy)methyl pivalate]
- IC50 [3, 8]: 9 nM
- selectivity for ENO1-deleted cells [3]: selective for ENO1-deleted cells

Compound: O=C1C(P(=O)(NCc2ccccc2)OCOC(=O)N2CCC(N3CCCCC3)CC2)CCCN1O (stereo not shown) [CDP9]
- IC50 [3, 8]: 36000 nM

Compound: CC(C)(C)C(=O)OCOP(=O)(NCc1ccc(F)c(F)c1)C1CCCN(O)C1=O (stereo not shown) [CDP13, ((((3,4-difluorobenzyl)amino)(1-hydroxy-2-oxopiperidin-3-yl)phosphoryl)oxy)methyl pivalate]
- IC50 [3, 8]: 221 nM

Compound: CC(C)(C)C(=O)OCOP(=O)(NCc1ccc(F)cc1F)C1CCCN(O)C1=O (stereo not shown) [CDP14, ((((2,4-difluorobenzyl)amino)(1-hydroxy-2-oxopiperidin-3-yl)phosphoryl)oxy)methyl pivalate]
- IC50 [3, 8]: 65 nM

Compound: O=C1C(P(=O)(O)O)CCCN1O (stereo not shown) [HEX]
- IC50 [5]: 28800 nM
- half-life in monkey compared to mouse [2]: longer in monkey
- IC50 [6]: 19700 nM

From patent publication US12679855B2, “Inhibitors of the enzyme enolase for precision oncology” (Board of Regents, The University of Texas System, priority 2019, dated 2026)
